# Source: ChEMBL document CHEMBL5352417, “Design, synthesis, and biological evaluation of aromatic tertiary amine derivatives as selective butyrylcholinesterase inhibitors for the treatment of Alzheimer's disease” (Eur J Med Chem, 2022)
# What was measured:
# [1] = biological target: Cholinesterase (Equus caballus) (UniProt P81908); assay: Inhibition of horse serum BuChE using butyrylthiocholine iodide as substrate at <10 uM measured for 3 mins by Ellman's method relative to control; assay type: cell-free
# Cholinesterase [2] = biological target: Cholinesterase (Equus caballus, UniProt P81908); assay: Inhibition of horse serum BuChE using butyrylthiocholine iodide as substrate measured for 3 mins by Ellman's method; assay type: cell-free
# [3] = biological target: Acetylcholinesterase (Electrophorus electricus) (UniProt O42275); assay: Inhibition of electric eel AchE using acetylthiocholine iodide as substrate at <10 uM measured for 3 mins by Ellman's method relative to control
# [4] = Neurotoxicity against human SH-SY5Y cells assessed as survival rate incubated for 24 hrs by MTT assay relative to control; assay type: toxicity, cell-based; parameters: concentration or dose not given beside the values; conditions: read-out: Survival
# [5] = Neurotoxicity against mouse BV-2 cells incubated for 24 hrs by MTT assay; assay type: toxicity, cell-based; conditions: read-out: LD50
# [6] = Effective permeability of compound at 25 ug/ml incubated for 18 hrs by PAMPA-BBB assay; assay type: ADME; conditions: dose 25 µg/ml, read-out: Peff
# [7] = Neurotoxicity against mouse HT-22 cells assessed as survival rate incubated for 24 hrs by MTT assay relative to control; assay type: toxicity, cell-based; parameters: concentration or dose not given beside the values; conditions: read-out: Survival
# [8] = Neurotoxicity against rat PC12 cells assessed as survival rate incubated for 24 hrs by MTT assay relative to control; assay type: toxicity, cell-based, PC-12; parameters: concentration or dose not given beside the values; conditions: read-out: Survival
# Cholinesterase [9] = biological target: Cholinesterase (Homo sapiens, UniProt P06276); assay: Inhibition of human BChE using butyrylthiocholine iodide as substrate measured for 3 mins by Ellman's method
# [10] = Neurotoxicity against human SH-SY5Y cells incubated for 24 hrs by MTT assay; assay type: toxicity, cell-based; conditions: read-out: LD50
# [11] = Neurotoxicity against rat PC12 cells incubated for 24 hrs by MTT assay; assay type: toxicity, cell-based, PC-12; conditions: read-out: LD50
# [12] = Neurotoxicity against mouse HT-22 cells incubated for 24 hrs by MTT assay; assay type: toxicity, cell-based; conditions: read-out: LD50
# Sequence of Cholinesterase (Equus caballus, UniProt P81908) (P81908 whole entry): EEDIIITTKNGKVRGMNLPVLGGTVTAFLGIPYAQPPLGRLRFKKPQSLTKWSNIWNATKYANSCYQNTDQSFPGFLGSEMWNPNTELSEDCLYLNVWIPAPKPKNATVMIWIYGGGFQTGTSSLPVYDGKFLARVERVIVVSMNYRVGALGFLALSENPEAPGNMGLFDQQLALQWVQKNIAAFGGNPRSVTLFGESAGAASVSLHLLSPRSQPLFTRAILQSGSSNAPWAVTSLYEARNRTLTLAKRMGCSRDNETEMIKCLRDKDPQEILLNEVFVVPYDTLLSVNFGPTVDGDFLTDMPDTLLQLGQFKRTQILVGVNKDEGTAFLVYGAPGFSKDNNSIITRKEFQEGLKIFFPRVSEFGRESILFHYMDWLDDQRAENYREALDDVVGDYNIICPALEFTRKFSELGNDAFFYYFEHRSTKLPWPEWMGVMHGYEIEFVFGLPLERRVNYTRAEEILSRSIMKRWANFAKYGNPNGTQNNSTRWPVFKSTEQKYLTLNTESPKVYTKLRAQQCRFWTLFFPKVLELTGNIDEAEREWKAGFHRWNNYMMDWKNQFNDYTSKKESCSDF
# Sequence of Cholinesterase (Equus caballus) (P81908 whole entry): as above
# Sequence of Acetylcholinesterase (Electrophorus electricus) (O42275 24-633 limits assumed): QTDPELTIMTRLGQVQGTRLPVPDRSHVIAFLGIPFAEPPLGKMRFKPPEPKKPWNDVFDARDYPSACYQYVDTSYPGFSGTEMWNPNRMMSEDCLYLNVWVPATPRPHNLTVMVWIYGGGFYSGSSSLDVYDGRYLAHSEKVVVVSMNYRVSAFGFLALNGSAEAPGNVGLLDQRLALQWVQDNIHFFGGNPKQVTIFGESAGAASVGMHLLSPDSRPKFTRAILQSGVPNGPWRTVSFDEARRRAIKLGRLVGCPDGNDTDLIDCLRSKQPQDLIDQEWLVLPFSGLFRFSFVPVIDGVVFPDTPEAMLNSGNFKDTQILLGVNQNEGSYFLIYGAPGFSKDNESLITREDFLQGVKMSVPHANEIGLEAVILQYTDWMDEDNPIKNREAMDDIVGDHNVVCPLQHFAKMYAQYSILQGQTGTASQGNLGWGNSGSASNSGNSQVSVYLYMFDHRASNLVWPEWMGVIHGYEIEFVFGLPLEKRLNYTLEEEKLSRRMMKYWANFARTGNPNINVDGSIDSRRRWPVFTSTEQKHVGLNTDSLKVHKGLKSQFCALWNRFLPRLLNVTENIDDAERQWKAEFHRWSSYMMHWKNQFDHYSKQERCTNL
# Sequence of Cholinesterase (Homo sapiens, UniProt P06276) (P06276 whole entry): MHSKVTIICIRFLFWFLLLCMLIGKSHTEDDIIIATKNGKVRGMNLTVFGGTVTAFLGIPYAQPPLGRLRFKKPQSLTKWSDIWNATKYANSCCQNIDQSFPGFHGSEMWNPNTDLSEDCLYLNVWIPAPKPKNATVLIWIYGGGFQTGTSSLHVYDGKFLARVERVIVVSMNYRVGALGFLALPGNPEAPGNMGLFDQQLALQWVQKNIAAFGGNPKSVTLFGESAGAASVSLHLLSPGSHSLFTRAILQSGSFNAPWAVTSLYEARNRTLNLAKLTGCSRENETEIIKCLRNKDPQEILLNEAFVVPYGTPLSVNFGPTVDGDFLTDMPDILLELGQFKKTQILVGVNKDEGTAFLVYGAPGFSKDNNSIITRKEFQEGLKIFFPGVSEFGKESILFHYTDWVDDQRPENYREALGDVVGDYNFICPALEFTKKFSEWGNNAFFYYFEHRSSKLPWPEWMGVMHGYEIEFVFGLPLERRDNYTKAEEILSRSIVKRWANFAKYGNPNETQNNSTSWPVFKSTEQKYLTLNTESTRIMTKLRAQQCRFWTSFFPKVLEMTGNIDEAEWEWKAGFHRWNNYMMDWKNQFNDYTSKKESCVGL
SMILES,inhibition [1],IC50 (Cholinesterase [2]),inhibition [3],also measured
O=C(CN(Cc1ccccc1)Cc1ccco1)Nc1cnc2ccccc2c1,29.6%,27.9 µM,13.2%,
O=C(CN(Cc1ccccc1)Cc1ccco1)Nc1ccc2ccccc2c1,50.4%,9.77 µM,13.9%,
Cc1ccc(NC(=O)CN(Cc2ccccc2)Cc2ccco2)cc1,37.5%,149 µM,12.8%,
O=C(CN(Cc1ccccc1)Cc1ccco1)Nc1ccccc1F,50.9%,8.86 µM,14.1%,
O=C(CN(Cc1ccccc1)Cc1ccco1)Nc1ccc2c(c1)OCO2,57.3%,8.26 µM,15.2%,
O=C(CN(Cc1ccccc1)Cc1ccco1)Nc1ccccc1,39.6%,15.4 µM,12.6%,
O=C(CN(Cc1ccco1)Cc1ccco1)Nc1ccccc1,47.3%,7.81 µM,12.6%,
O=C(CN(Cc1ccccc1)Cc1ccco1)Nc1cccc(F)c1F,50.1%,13.3 µM,18%,
Cc1ccccc1NC(=O)CN(Cc1ccc2ccccc2c1)C1CCCCC1,57.5%,4.26 µM,25.3%,
O=C(CN(Cc1ccccc1)Cc1ccco1)Nc1cccc(Cl)c1,42.8%,47.4 µM,19.6%,
Cc1cccc(NC(=O)CN(Cc2ccccc2)Cc2ccco2)c1,57.8%,7.33 µM,13.3%,
COc1ccc(NC(=O)CN(Cc2ccccc2)Cc2ccco2)cc1,21.6%,121 µM,18.2%,
Cc1ccccc1NC(=O)CN(Cc1ccc2ccccc2c1)Cc1ccco1,70.6%,1.22 µM,15.9%,"viability at 24 h [4]: 69.4%; CC50 at 24 h [5]: 10.9 µM; Papp at 18 h, 25 ug/ml [6]: 5.67 ×10⁻⁶ cm/s; viability at 24 h [7]: 67.1%; viability at 24 h [8]: 67.3%"
O=C(CN(Cc1ccccc1)Cc1ccco1)Nc1cccc(Br)c1,54.7%,6.23 µM,13.4%,
COc1ccccc1NC(=O)CN(Cc1ccccc1)Cc1ccco1,44.2%,26.4 µM,14.7%,
Cc1ccccc1NC(=O)CN(Cc1ccccc1)Cc1ccco1,54.7%,5.46 µM,14.2%,
CCCCN(CC(=O)Nc1ccccc1C)Cc1ccc2ccccc2c1,77.9%,1.48 µM,21.9%,"IC50 (Cholinesterase [9]): 0.18 µM; CC50 at 24 h [5]: 19 µM; Papp at 18 h, 25 ug/ml [6]: 13.9 ×10⁻⁶ cm/s; viability at 24 h [7]: 83.1%; viability at 24 h [8]: 49.1%; CC50 at 24 h [10]: 70.2 µM"
CCCN(CC(=O)Nc1ccccc1C)Cc1ccc2ccccc2c1,91.3%,0.19 µM,22.9%,"IC50 (Cholinesterase [9]): 0.027 µM; viability at 24 h [4]: 52.8%; CC50 at 24 h [5]: 17.6 µM; Papp at 18 h, 25 ug/ml [6]: 11.9 ×10⁻⁶ cm/s; viability at 24 h [7]: 51.6%; CC50 at 24 h [11]: 45.9 µM"
CN(C)CCCN1c2ccccc2Sc2ccc(Cl)cc21 [CHLORPROMAZINE],,,,"Papp at 18 h, 25 ug/ml [6]: 6.69 ×10⁻⁶ cm/s"
CC(C)CN(CCCc1ccccc1)Cc1ccc2ccccc2c1,54.7%,4.04 µM,19.4%,"IC50 (Cholinesterase [9]): 0.024 µM; viability at 24 h [4]: 155%; CC50 at 24 h [5]: 48.7 µM; Papp at 18 h, 25 ug/ml [6]: 9.87 ×10⁻⁶ cm/s; viability at 24 h [7]: 83.5%; viability at 24 h [8]: 86.3%"
Cc1cccc(NC(=O)CN(Cc2ccc3ccccc3c2)Cc2ccco2)c1C,48.1%,11 µM,15.3%,

SMILES,inhibition [1],IC50 (Cholinesterase [2]),inhibition [3],also measured
CCCN(CCCc1ccccc1)Cc1ccc2ccccc2c1,80.3%,1.45 µM,21.4%,"IC50 (Cholinesterase [9]): 0.03 µM; viability at 24 h [4]: 62.6%; CC50 at 24 h [5]: 29 µM; Papp at 18 h, 25 ug/ml [6]: 10.3 ×10⁻⁶ cm/s; CC50 at 24 h [12]: 54.6 µM; CC50 at 24 h [11]: 77.8 µM"
O=C(CN(Cc1ccco1)Cc1c[nH]c2ccccc12)Nc1ccccc1,65.3%,2.14 µM,26.2%,"CC50 at 24 h [5]: 27.5 µM; Papp at 18 h, 25 ug/ml [6]: 7.3 ×10⁻⁶ cm/s; CC50 at 24 h [12]: 59.6 µM; CC50 at 24 h [11]: 40.4 µM; CC50 at 24 h [10]: 42.2 µM"
O=C(CN(Cc1ccccc1)Cc1ccco1)Nc1ccc(F)cc1,47.1%,28.3 µM,14.5%,
COc1cccc(NC(=O)CN(Cc2ccccc2)Cc2ccco2)c1,50.1%,24.8 µM,9.2%,
O=C(CN(Cc1ccccc1)Cc1ccco1)Nc1cccc2ccccc12,63%,3.53 µM,13.6%,
Cc1cccc(NC(=O)CN(Cc2ccco2)Cc2c[nH]c3ccccc23)c1,55.2%,6.61 µM,14.3%,
O=C(CN(Cc1ccc2ccccc2c1)Cc1ccco1)Nc1ccccc1,62.9%,2.26 µM,16.9%,"viability at 24 h [4]: 90.7%; CC50 at 24 h [5]: 14 µM; Papp at 18 h, 25 ug/ml [6]: 7.81 ×10⁻⁶ cm/s; viability at 24 h [7]: 86.5%; viability at 24 h [8]: 100%"
c1ccc(CCCN(Cc2ccc3ccccc3c2)Cc2ccco2)cc1,42.5%,15.7 µM,13.4%,
O=C(CN(Cc1ccco1)Cc1ccccc1[N+](=O)[O-])Nc1ccccc1,61.9%,1.3 µM,15.8%,"Papp at 18 h, 25 ug/ml [6]: 4.93 ×10⁻⁶ cm/s"
Cc1cccc(NC(=O)CN(Cc2ccco2)Cc2c[nH]c3ccccc23)c1C,52.3%,10.9 µM,18.2%,
O=C(CN(Cc1ccccc1)Cc1ccco1)Nc1cccc(F)c1,47%,31.7 µM,17.3%,
O=C(CN(Cc1ccccc1)Cc1ccco1)Nc1ccccc1Cl,50.5%,9.96 µM,17.5%,
O=C(CN(Cc1ccco1)Cc1cccc2ccccc12)Nc1ccccc1,47.1%,21.7 µM,19.6%,
N#Cc1ccccc1NC(=O)CN(Cc1ccccc1)Cc1ccco1,36.6%,118 µM,10.3%,
Cc1ccccc1NC(=O)CN(Cc1ccc2ccccc2c1)CC(C)(C)C,64.6%,4.1 µM,19.6%,
O=C(CN(Cc1ccccc1)Cc1ccco1)Nc1ccc(C(F)(F)F)cc1,50.9%,6.8 µM,13.4%,
COc1cc(NC(=O)CN(Cc2ccccc2)Cc2ccco2)cc(OC)c1OC,18.9%,52.3 µM,16.1%,
Cc1cccc(NC(=O)CN(Cc2ccc3ccccc3c2)Cc2ccco2)c1,70.5%,1.74 µM,15.1%,"viability at 24 h [4]: 91.7%; CC50 at 24 h [5]: 24.9 µM; Papp at 18 h, 25 ug/ml [6]: 9.07 ×10⁻⁶ cm/s; viability at 24 h [7]: 91.4%; viability at 24 h [8]: 105%"
C[C@]12CC[C@@H]3c4ccc(O)cc4CC[C@H]3[C@@H]1CC[C@@H]2O [ESTRADIOL],,,,"Papp at 18 h, 25 ug/ml [6]: 14.6 ×10⁻⁶ cm/s"
Cc1ccccc1NC(=O)CN(Cc1ccco1)Cc1c[nH]c2ccccc12,64.7%,4.39 µM,14.2%,
N#Cc1ccc(NC(=O)CN(Cc2ccccc2)Cc2ccco2)cc1,28.6%,710 µM,9.68%,
